Test results taken from patent publication US6545009B1, “Retinoid-related receptor function regulating agent” (Takeda Chemical Industries, Ltd., priority 1998, dated 2003).

| melting point | Compound |
| --- | --- |
| 183 to 184 °C | COC(=O)c1ccc(-c2nc(-c3ccc(Cl)cc3)co2)cc1 [Example 1, methyl 4-[4-(4-chlorophenyl)-2-oxazolyl]benzoate] |
| 182 to 183 °C | COC(=O)c1ccc(-c2nc(-c3ccc(C(F)(F)F)cc3)co2)cc1 [Example 2, methyl 4-[4-(4-trifluoromethylphenyl)-2-oxazolyl]benzoate] |
| 200 to 202 °C | COC(=O)c1ccc(-c2nc(-c3ccc(OC)cc3)co2)cc1 [Example 3, methyl 4-[4-(4-methoxyphenyl)-2-oxazolyl]benzoate] |
| 175 to 176 °C | COC(=O)c1ccc(-c2nc(-c3ccccc3)co2)cc1 [Example 4, methyl 4-(4-phenyl-2-oxazolyl)benzoate] |
| 110 to 112 °C | CCOC(=O)c1ccc(-c2coc(-c3ccccc3)n2)cc1 [Example 5, ethyl 4-(2-phenyl-4-oxazolyl)benzoate] |
| 153 to 154 °C | CCOC(=O)c1ccc(-c2coc(-c3ccc(Cl)cc3)n2)cc1 [Example 6, ethyl 4-[2-(4-chlorophenyl)-4-oxazolyl)benzoate] |
| 189 to 190 °C | COC(=O)c1ccc(-c2nc(-c3ccc(Cl)s3)co2)cc1 [Example 7, methyl 4-[4-(5-chloro-2-thienyl)-2-oxazolyl]benzoate] |
| 286 to 287 °C | COc1ccc(-c2coc(-c3ccc(C(=O)O)cc3)n2)cc1 [Example 10, 4-[4-(4-methoxyphenyl)-2-oxazolyl]benzoic acid] |
| 275 to 276 °C | O=C(O)c1ccc(-c2nc(-c3ccccc3)co2)cc1 [Example 11, 4-(4-phenyl-2-oxazolyl]benzoic acid] |
| 271 to 273 °C | O=C(O)c1ccc(-c2coc(-c3ccccc3)n2)cc1 [Example 12, 4-(2-phenyl-4-oxazolyl]benzoic acid] |
| 288 to 289 °C | O=C(O)c1ccc(-c2coc(-c3ccc(Cl)cc3)n2)cc1 [Example 13, 4-[2-(4-chlorophenyl)-4-oxazolyl]benzoic acid] |
| ≥ 300 °C | O=C(O)c1ccc(-c2nc(-c3ccc(Cl)s3)co2)cc1 [Example 14, 4-[4-(5-chloro-2-thienyl)-2-oxazolyl]benzoic acid] |
| 264 to 265 °C | O=C(O)c1ccc(-c2nc(-c3ccccc3C(F)(F)F)co2)cc1 [Example 15, 4-[4-(2-trifluoromethylphenyl)-2-oxazolyl]benzoic acid] |
| 134 to 135 °C | COC(=O)c1ccc(-c2nc(-c3cccc(C(F)(F)F)c3)co2)cc1 [Example 16, methyl 4-[4-(3-trifluoromethylphenyl)-2-oxazolyl]benzoate] |
| 180 to 181 °C | COC(=O)c1ccc(-c2nc(-c3cc(C(F)(F)F)cc(C(F)(F)F)c3)co2)cc1 [Example 17, methyl 4-[4-[3,5-bis(trifluoromethyl)phenyl]-2-oxazolyl]benzoate] |
| 160 to 161 °C | COC(=O)c1ccc(-c2nc(-c3ccc(OC(F)F)cc3)co2)cc1 [Example 18, methyl 4-[4-(4-difluoromethoxylphenyl)-2-oxazolyl]benzoate] |
| 168 to 170 °C | CCOC(=O)c1ccc(-c2coc(-c3ccc(C(F)(F)F)cc3)n2)cc1 [Example 19, ethyl 4-[2-(4-trifluoromethylphenyl)-4-oxazolyl]benzoate] |
| 132 to 133 °C | CCOC(=O)c1ccc(-c2coc(-c3cccc(C(F)(F)F)c3)n2)cc1 [Example 20, ethyl 4-[2-(3-trifluoromethylphenyl)-4-oxazolyl]benzoate] |

| melting point | Compound |
| --- | --- |
| 151 to 152 °C | COC(=O)c1cccc(-c2nc(-c3ccc(C(F)(F)F)cc3)co2)c1 [Example 21, methyl 3-[4-(4-trifluoromethylphenyl)-2-oxazolyl]benzoate] |
| 253 to 254 °C | O=C(O)c1ccc(-c2nc(-c3cccc(C(F)(F)F)c3)co2)cc1 [Example 22, 4-[4-(3-trifluoromethylphenyl)-2-oxazolyl]benzoic acid] |
| 277 to 279 °C | O=C(O)c1ccc(-c2nc(-c3cc(C(F)(F)F)cc(C(F)(F)F)c3)co2)cc1 [Example 23, 4-[4-[3,5-bis(trifluoromethyl)phenyl)-2-oxazolyl]benzoic acid] |
| 261 to 262 °C | O=C(O)c1ccc(-c2nc(-c3ccc(OC(F)F)cc3)co2)cc1 [Example 24, 4-[4-(4-difluoromethoxylphenyl)-2-oxazolyl]benzoic acid] |
| 294 to 295 °C | O=C(O)c1ccc(-c2coc(-c3ccc(C(F)(F)F)cc3)n2)cc1 [Example 25, 4-[2-(4-trifluoromethylphenyl)-4-oxazolyl]benzoic acid] |
| 268 to 269 °C | O=C(O)c1ccc(-c2coc(-c3cccc(C(F)(F)F)c3)n2)cc1 [Example 26, 4-[2-(3-trifluoromethylphenyl)-4-oxazolyl]benzoic acid] |
| 206 to 208 °C | O=C(O)c1cccc(-c2nc(-c3ccc(C(F)(F)F)cc3)co2)c1 [Example 27, 3-[4-(4-trifluoromethylphenyl)-2-oxazolyl]benzoic acid] |
| 146 to 148 °C | COC(=O)c1ccc(-c2nc(-c3ccc(OC(F)F)cc3)cs2)cc1 [Example 28, methyl 4-[4-(4-difluoromethoxyphenyl)-2-thiazolyl]benzoate] |
| 186 to 187 °C | COC(=O)c1ccc(-c2nc(-c3ccc(Cl)cc3)cs2)cc1 [Example 29, methyl 4-[4-(4-chlorophenyl)-2-thiazolyl]benzoate] |
| 171 to 172 °C | COC(=O)c1ccc(-c2nc(-c3ccc(Cl)s3)cs2)cc1 [Example 30, methyl 4-[4-(5-chloro-2-thienyl)-2-thiazolyl]benzoate] |
| 234 to 236 °C | Br.CCOC(=O)c1ccc(-c2csc(-c3cccnc3)n2)cc1 [Example 31, ethyl 4-[2-(3-pyridyl)-4-thiazolyl]benzoate hydrobromide] |
| 185 to 187 °C | COC(=O)c1ccc(-c2nc(-c3ccc(C)cc3)cs2)cc1 [Example 33, methyl 4-[4-(4-methylphenyl)-2-thiazolyl]benzoate] |
| 241 to 242 °C | Br.COC(=O)c1ccc(-c2nc(-c3cccnc3)cs2)cc1 [Example 34, methyl 4-[4-(3-pyridyl)-2-thiazolyl]benzoate hydrobromide] |
| 238 to 240 °C | Br.COC(=O)c1ccc(-c2nc(-c3ccncc3)cs2)cc1 [Example 35, methyl 4-[4-(4-pyridyl)-2-thiazolyl]benzoate hydrobromide] |
| 248 to 250 °C | Br.CCOC(=O)c1ccc(-c2csc(-c3ccncc3)n2)cc1 [Example 36, ethyl 4-[2-(4-pyridyl)-4-thiazolyl]benzoate hydrobromide] |
| 243 to 244 °C | Br.COC(=O)c1ccc(-c2nc(-c3ccccn3)cs2)cc1 [Example 38, methyl 4-[4-(2-pyridyl)-2-thiazolyl]benzoate hydrobromide] |
| 234 to 236 °C | CCOC(=O)c1ccc(-c2csc(-c3ccc(Cl)cc3)n2)s1 [Example 39, ethyl 5-[2-(4-chlorophenyl)-4-thiazolyl]-2-thienylcarboxylate] |
| 132 to 134 °C | COC(=O)c1ccc(-c2nc(-c3cccc(OC(F)(F)F)c3)cs2)cc1 [Example 40, methyl 4-[4-(3-trifluoromethoxyphenyl)-2-thiazolyl]benzoate] |
